Patent publication US20090098139A1, “Combination therapy for the treatment of neovascular disorders” (priority 2006, published 2009)

Tests used:
[1] = tested on: animal counterpart of isoform 165; assay: preclinical animal studies: abnormal blood vessel growth in the retina; format: in vivo; conditions: binding to animal counterpart of VEGF isoform 165
[2] = tested on: animal counterpart of isoform 121; assay: preclinical binding to VEGF isoform 121 counterpart; conditions: preclinical in vitro and animal studies
[3] = tested on: normal vessels of the retina; assay: animal study, direct comparison with a VEGF inhibitor that blocks all isoforms: normal retinal vessels; format: in vivo; conditions: the pan-VEGF isoform inhibitor comparator altered their growth and survival

## pegaptanib sodium [Macugen]
[1]
  inhibition of abnormal blood vessel growth in the retina: highly effective in inhibiting abnormal blood vessel growth in the retina
[2]
  binding with the animal counterpart of isoform 121: did not bind with the animal counterpart of isoform 121 to any significant degree
[3]
  effect on the normal vessels of the retina: did not affect the normal vessels of the retina
